This is an account of results in ChEMBL document CHEMBL1201862, “PubChem BioAssay data set” (2004).

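Tested at 5 concentrations; 48 h exposure; 96-well plates; endpoints linearly interpolated, else capped at highest concentration. GI50 is the concentration that inhibits growth by half.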 The source made the active and inactive calls. Cut-off read from the data, not from the text of the source: active = GI50 up to about 1.1 µM and inactive = higher. A value given as a limit tells only on which side of the number the result lay.

Among the test systems are CAKI-1; MCF7; OVCAR-8; HT-29; OVCAR-4; HL-60; SNB-75; COLO 205; HOP-92; OVCAR-3; SF-539; MDA-MB-435; HCT-15; MDA-MB-231; UACC-257; SF-268; K562; RPMI-8226; A498.
Common to all, as to assay: NCI tumour cell line growth inhibition, 48 h

Consider `CC1=CC(=O)/C(=C/N2C(=O)CNC2=S)C(=O)O1`, for which the GI50 in the assay on CAKI-1, with MCF7, with OVCAR-8, with HT-29, in the assay on OVCAR-4 and with HL-60 was > 100 µM (inactive) each time. The GI50 with SNB-75, in the assay with COLO 205, in the assay on HOP-92, with OVCAR-3, with SF-539 and in the assay on MDA-MB-435 was > 100 µM (inactive) each time. The GI50 in the assay on HCT-15 is over 100 µM; in the assay with MDA-MB-231, > 100 µM (inactive); in the assay on UACC-257, > 100 µM (inactive).

In the case of `Cc1cc(S(=O)(=O)Nc2nc(N)n[nH]2)c(SCC(=O)O)cc1Cl`, the GI50 with CAKI-1, in the assay with MCF7, in the assay with OVCAR-8, in the assay on HT-29, in the assay on OVCAR-4 and in the assay on SF-268 was > 10 µM (inactive) throughout. The GI50 in the assay with HL-60, in the assay with SNB-75, in the assay with COLO 205, in the assay on K562, in the assay with HOP-92 and in the assay with OVCAR-3 was > 10 µM (inactive) in each case. For the same compound, the GI50 in the assay on SF-539 is > 10 µM (inactive); with HCT-15, over 10 µM; with RPMI-8226 it was > 10 µM (inactive); with A498, > 10 µM (inactive); with UACC-257, > 10 µM (inactive).

As to `CN(CN1C(=O)C2Cc3ccccc3CN2C1=O)c1ccccn1` (centres undefined), the GI50 with CAKI-1, with OVCAR-8, in the assay on OVCAR-4, with SF-268, in the assay on HL-60 and in the assay on COLO 205 was > 100 µM (inactive) each time. In addition, the GI50 in the assay with K562 was > 100 µM (inactive); with OVCAR-3 it was > 100 µM (inactive); in the assay on SF-539, > 100 µM (inactive); in the assay on HCT-15, over 100 µM; in the assay with RPMI-8226, > 100 µM (inactive); in the assay on A498, > 100 µM (inactive).

Regarding `CC1(C)CC2C(=O)c3ccccc3NC2c2ccccc21` (centres undefined), the GI50 in the assay on CAKI-1 was 6.32 µM (inactive); in the assay with MCF7, 4.33 µM (inactive); with OVCAR-8 it was 5.96 µM (inactive); with HT-29, 3.48 µM (inactive); with OVCAR-4, 57 µM (inactive); in the assay with SF-268, 14.6 µM (inactive). Also, the GI50 is 2.11 µM (inactive) with HL-60; 4.18 µM (inactive) in the assay with SNB-75; 3.44 µM (inactive) in the assay with COLO 205; 1.09 µM (active) in the assay with K562; > 24.6 µM (inactive) with HOP-92; 4.29 µM (inactive) in the assay on OVCAR-3. The GI50 in the assay with SF-539 was 2.33 µM (inactive); in the assay with MDA-MB-435, 0.326 µM (active); with HCT-15, 3.6 µM; in the assay on RPMI-8226, 2.54 µM (inactive); in the assay on A498, 6.21 µM (inactive); in the assay with UACC-257, 40.4 µM (inactive).

On to `CCOC(=O)C(Cc1ccc(OC(=O)OC(C)(C)C)cc1)NC(=O)OC(C)(C)C` (centres undefined), for which the GI50 in the assay on CAKI-1 is > 100 µM (inactive); with MCF7 it was > 100 µM (inactive); in the assay with OVCAR-8, 37.4 µM (inactive); with HT-29, > 100 µM (inactive); with OVCAR-4, > 100 µM (inactive); in the assay with SF-268, 65.2 µM (inactive). The GI50 is 28.2 µM (inactive) in the assay on HL-60; 17.1 µM (inactive) in the assay on SNB-75; 39.7 µM (inactive) with COLO 205; 76.4 µM (inactive) with K562; 40.6 µM (inactive) in the assay with OVCAR-3; 44.8 µM (inactive) with SF-539. Further, the GI50 in the assay on MDA-MB-435 is 38.2 µM (inactive); with HCT-15 it was over 100 µM; in the assay on MDA-MB-231, 41.6 µM (inactive); in the assay on UACC-257, 21.3 µM (inactive).

In the case of `CC(=O)O[C@@]1(C)[C@@H](C)C(=O)O[C@@H]2CCN3CC=C(COC(=O)[C@]1(C)O)[C@H]23`, the GI50 in the assay with CAKI-1, with OVCAR-8, in the assay on HT-29, in the assay on OVCAR-4, with SF-268 and in the assay with HL-60 was > 100 µM (inactive) each time. The GI50 is 41 µM (inactive) in the assay with SNB-75; > 100 µM (inactive) in the assay with COLO 205; > 100 µM (inactive) with K562; > 100 µM (inactive) in the assay on HOP-92; > 100 µM (inactive) in the assay with OVCAR-3; > 100 µM (inactive) in the assay on SF-539. Moreover, the GI50 in the assay on HCT-15 was over 100 µM; in the assay with RPMI-8226, > 100 µM (inactive); with UACC-257, > 100 µM (inactive).

On to `C/C(=C/C(=O)Nn1c(Cc2ccccc2)n[nH]c1=O)C(=O)O`, for which the GI50 with CAKI-1, in the assay with MCF7, with OVCAR-8, in the assay with HT-29, in the assay with OVCAR-4 and in the assay on SF-268 was > 100 µM (inactive) in each case. Also, the GI50 in the assay on HL-60, in the assay on SNB-75, in the assay with COLO 205, in the assay with K562, with OVCAR-3 and with SF-539 was > 100 µM (inactive) each time. Besides, the GI50 was > 100 µM (inactive) in the assay on MDA-MB-435; over 100 µM with HCT-15; > 100 µM (inactive) in the assay on MDA-MB-231; > 100 µM (inactive) with RPMI-8226; > 100 µM (inactive) in the assay on UACC-257.

Consider `COc1ccc(/C=C2/C(=O)N(/C=C3\C(=O)Oc4ccccc4C3=O)/C(=N/C(C)=O)N2C)cc1OC`, for which the GI50 in the assay on CAKI-1, with MCF7, with OVCAR-8, with HT-29, with OVCAR-4 and in the assay on SF-268 was > 100 µM (inactive) throughout. Moreover, the GI50 was > 100 µM (inactive) in the assay with HL-60; 45.9 µM (inactive) in the assay on SNB-75; > 100 µM (inactive) with COLO 205; > 100 µM (inactive) with K562; 0.143 µM (active) with OVCAR-3; > 100 µM (inactive) in the assay on SF-539. Further, the GI50 in the assay with MDA-MB-435 is > 100 µM (inactive); with HCT-15, over 100 µM; in the assay on MDA-MB-231 it was > 100 µM (inactive); in the assay with RPMI-8226, > 100 µM (inactive); in the assay on UACC-257, > 100 µM (inactive).

`CC(C)(C)NCc1cc(C(C)(C)C)cc(-c2ccc(Cl)cc2)c1O`: the GI50 with CAKI-1 was 12.6 µM (inactive); in the assay with MCF7, 14.6 µM (inactive); in the assay on HT-29 it was 17.9 µM (inactive); with OVCAR-4 it was 16.5 µM (inactive); in the assay on SF-268, 12.6 µM (inactive); in the assay on HL-60 it was 5.33 µM (inactive). The GI50 with SNB-75 is 10.7 µM (inactive); in the assay on COLO 205 it was 10.7 µM (inactive); with HOP-92, 14.3 µM (inactive); in the assay with OVCAR-3, 15.6 µM (inactive); in the assay with SF-539 it was 11.9 µM (inactive); in the assay on MDA-MB-435 it was 12.6 µM (inactive). The GI50 was 11 µM in the assay on HCT-15, 11.2 µM (inactive) with MDA-MB-231, 9.53 µM (inactive) in the assay with RPMI-8226 and 28.2 µM (inactive) with UACC-257.

For `C/C(=C\COP(=O)(O)OP(=O)(O)O)CC/C=C(\C)CNc1c(F)c(F)c(F)c(F)c1F`, the GI50 is > 100 µM (inactive) in the assay with CAKI-1; > 100 µM (inactive) with MCF7; > 64.3 µM (inactive) in the assay on OVCAR-8; > 58.3 µM (inactive) in the assay on HT-29; > 100 µM (inactive) with OVCAR-4; > 100 µM (inactive) in the assay on SF-268. The GI50 in the assay with HL-60 is > 100 µM (inactive); with SNB-75, 1.69 µM (inactive); with COLO 205, > 100 µM (inactive); in the assay on K562 it was > 100 µM (inactive); in the assay with HOP-92, 82.2 µM (inactive); with OVCAR-3, > 100 µM (inactive). Besides, the GI50 in the assay with SF-539 was 97.1 µM (inactive); in the assay with MDA-MB-435, > 100 µM (inactive); with HCT-15, over 100 µM; in the assay on MDA-MB-231, 5.43 µM (inactive); in the assay with UACC-257, > 70.3 µM (inactive).

Consider `CCOC(=O)c1ccc(-c2cc(C)[nH]n2)[nH]1`, for which the GI50 in the assay on CAKI-1 is > 100 µM (inactive); in the assay on OVCAR-8, > 100 µM (inactive); in the assay with HT-29 it was > 100 µM (inactive); in the assay on OVCAR-4 it was > 100 µM (inactive); with SF-268 it was > 100 µM (inactive); with HL-60, 63.5 µM (inactive). Besides, the GI50 in the assay with SNB-75, in the assay with COLO 205, in the assay on HOP-92, with OVCAR-3, in the assay with SF-539 and with MDA-MB-435 was > 100 µM (inactive) each time. The GI50 in the assay with HCT-15 is over 100 µM; in the assay with MDA-MB-231 it was > 100 µM (inactive); in the assay with RPMI-8226, > 100 µM (inactive); with A498, 50.4 µM (inactive); in the assay on UACC-257, > 100 µM (inactive).

Regarding `COc1cc2c(c(OC)c1OC)-c1ccc(SC)c(=O)cc1[C@@H](OC(C)=O)CC2`, the GI50 with CAKI-1 is < 0.01 µM (active); in the assay on MCF7, < 0.01 µM (active); with OVCAR-8 it was < 0.01 µM (active); in the assay on HT-29, < 0.01 µM (active); in the assay on OVCAR-4 it was > 100 µM (inactive); in the assay on SF-268 it was < 0.01 µM (active). Moreover, the GI50 in the assay with HL-60 was < 0.01 µM (active); in the assay with SNB-75 it was < 0.0152 µM (active); in the assay with COLO 205, < 0.01 µM (active); in the assay with K562, < 0.01 µM (active); with HOP-92, > 100 µM (inactive); in the assay with OVCAR-3, < 0.01 µM (active). Moreover, the GI50 is < 0.01 µM (active) in the assay with SF-539; < 0.01 µM (active) in the assay on MDA-MB-435; under 0.01 µM in the assay on HCT-15; < 0.01 µM (active) in the assay on MDA-MB-231; < 0.01 µM (active) with UACC-257.
